Assays:
[1] = Retardation factor, Rm of the compound by thin-layer chromatography; assay type: physicochemical
Brain [2] = assay: Drug uptake albino mouse brain at 15 mg equivalent of oxazepam/kg, iv after 1 mins measured per gm of tissue by thin-layer chromatography; assay type: ADME, organism-based; conditions: in vivo
Brain [3] = assay: Drug uptake albino mouse brain at 15 mg equivalent of oxazepam/kg, iv after 3 mins measured per gm of tissue by thin-layer chromatography; assay type: ADME, organism-based; conditions: in vivo, 0.05 h
Brain [4] = assay: Drug uptake albino mouse brain at 15 mg equivalent of oxazepam/kg, iv after 12 mins measured per gm of tissue by thin-layer chromatography; assay type: ADME, organism-based; conditions: in vivo, 0.2 h
Brain [5] = assay: Drug uptake albino mouse brain at 15 mg equivalent of oxazepam/kg, iv after 20 mins measured per gm of tissue by thin-layer chromatography; assay type: ADME, organism-based; conditions: in vivo
Brain [6] = assay: Drug uptake albino mouse brain at 15 mg equivalent of oxazepam/kg, iv after 40 mins measured per gm of tissue by thin-layer chromatography; assay type: ADME, organism-based; conditions: in vivo
Brain [7] = assay: Drug uptake albino mouse brain at 15 mg equivalent of oxazepam/kg, iv after 90 mins measured per gm of tissue by thin-layer chromatography; assay type: ADME, organism-based; conditions: in vivo, 1.5 h
Brain [8] = assay: Drug uptake albino mouse brain at 15 mg equivalent of oxazepam/kg, iv after 180 mins measured per gm of tissue by thin-layer chromatography; assay type: ADME, organism-based; conditions: in vivo, 3 h
Brain [9] = assay: Drug uptake albino mouse brain at 5 mg equivalent of oxazepam/kg, iv after 5 mins measured per gm of tissue by thin-layer chromatography; assay type: ADME, organism-based; conditions: in vivo
Brain [10] = assay: Drug uptake albino mouse brain at 5 mg equivalent of oxazepam/kg, iv after 10 mins measured per gm of tissue by thin-layer chromatography; assay type: ADME, organism-based; conditions: in vivo
Brain [11] = assay: Drug uptake albino mouse brain at 5 mg equivalent of oxazepam/kg, iv after 20 mins measured per gm of tissue by thin-layer chromatography; assay type: ADME, organism-based; conditions: in vivo
Brain [12] = assay: Drug uptake albino mouse brain at 5 mg equivalent of oxazepam/kg, iv after 40 mins measured per gm of tissue by thin-layer chromatography; assay type: ADME, organism-based; conditions: in vivo
Brain [13] = assay: Drug uptake albino mouse brain at 5 mg equivalent of oxazepam/kg, iv after 60 mins measured per gm of tissue by thin-layer chromatography; assay type: ADME, organism-based; conditions: in vivo, 1 h
Brain [14] = assay: Drug uptake albino mouse brain at 5 mg equivalent of oxazepam/kg, iv after 120 mins measured per gm of tissue by thin-layer chromatography; assay type: ADME, organism-based; conditions: in vivo, 2 h
Brain [15] = assay: Drug uptake albino mouse brain at 5 mg equivalent of oxazepam/kg, iv after 240 mins measured per gm of tissue by thin-layer chromatography; assay type: ADME, organism-based; conditions: in vivo, 4 h
Brain [16] = assay: Drug uptake albino mouse brain at 5 mg equivalent of oxazepam/kg, iv after 2 mins measured per gm of tissue by thin-layer chromatography; assay type: ADME, organism-based; conditions: in vivo
Brain [17] = assay: Drug uptake albino mouse brain at 5 mg equivalent of oxazepam/kg, iv after 6 mins measured per gm of tissue by thin-layer chromatography; assay type: ADME, organism-based; conditions: in vivo, 0.1 h
Brain [18] = assay: Drug uptake albino mouse brain at 5 mg equivalent of oxazepam/kg, iv after 30 mins measured per gm of tissue by thin-layer chromatography; assay type: ADME, organism-based; conditions: in vivo, 0.5 h
Brain [19] = assay: Drug uptake albino mouse brain at 5 mg equivalent of oxazepam/kg, iv after 1 min measured per gm of tissue by thin-layer chromatography; assay type: ADME, organism-based; conditions: in vivo

## CCCC(=O)OC1N=C(c2ccccc2)c2cc(Cl)ccc2N[14C]1=O (configuration not stated)
[1]
  Rm: 0.17
Brain [2]
  Drug uptake: 16.6 nmol
Brain [3]
  Drug uptake: 17.3 nmol
Brain [4]
  Drug uptake: 19 nmol
Brain [5]
  Drug uptake: 25.9 nmol
Brain [6]
  Drug uptake: 32 nmol
Brain [7]
  Drug uptake: 38.2 nmol
Brain [8]
  Drug uptake: 22.6 nmol

## CC(C)C(=O)OC1N=C(c2ccccc2)c2cc(Cl)ccc2N[14C]1=O (configuration not stated)
Brain [9]
  Drug uptake: 5.7 nmol
Brain [10]
  Drug uptake: 8.9 nmol
Brain [11]
  Drug uptake: 9.3 nmol
Brain [12]
  Drug uptake: 11.6 nmol
Brain [13]
  Drug uptake: 10.8 nmol
Brain [14]
  Drug uptake: 5.9 nmol
Brain [15]
  Drug uptake: 3.8 nmol
Brain [16]
  Drug uptake: 3.1 nmol
[1]
  Rm: 0.12

## COC(=O)CCC(=O)OC1N=C(c2ccccc2)c2cc(Cl)ccc2N[14C]1=O (configuration not stated)
Brain [13]
  Drug uptake: 9.8 nmol
Brain [17]
  Drug uptake: 3.8 nmol
Brain [18]
  Drug uptake: 10.8 nmol
[1]
  Rm: -0.03
Brain [19]
  Drug uptake: 0.8 nmol
